{"source": "paper PMC3024946", "about": "“Hydroxyproline-containing collagen analogs trigger the release and activation of collagen-sequestered proMMP-2 by competition with prodomain-derived peptide P33-42” (Fibrogenesis & Tissue Repair, 2011)", "key": {"ProMMP-2 [1]": {"test_system": "ProMMP-2", "test": "DQ-gelatine degradation assay with MMP-2", "type": "biochemical, human", "conditions": "for DQ-gelatine cleavage by proMMP-2: 5 h at 25°C", "experimental": "(§1) Enzymatic activities of MMPs were studied spectrofluorimetrically by cleavage of fluorogenic substrates in MMP activity buffer within 2 to 5 h. For gelatinases 800 nM MCA-Pro-Leu-Gly-Leu-Dnp-Dap-Ala-Arg-NH2 (λex/em 328/393 nm; Bachem, Bubendorf, Switzerland) or 10 μg/ml DQ-gelatine were used, according to the method described by Knight et al. for collagenases 800 nM MCA-Pro-Cha-Gly-Nva-His-Ala-Dpa-NH2 (λex/em 280/360 nm; Anaspec, San José, CA, USA). In some experiments, proMMP-2 was fully activated in the presence of 1 mM APMA prior to the kinetic measurements. A quantity of 50 ng pro- or actMMP-2 alone or mixed with 10- to 150-fold molar excesses of (GPO)10, GAP, P33-42 or mixtures of (GPO)10 and P33-42, were added to CI-coated, BSA-coated (1 μg/well both) or uncoated wells containing 150 μl of the respective substrate solution. The peptide P33-42 was purchased from the Institute of Biochemistry (Humboldt-University, Berlin, Germany). The influence of CI on MMP-2 enzymatic activity against the quenched fluorescent substrate could be excluded. Background subtraction (measurement without MMPs) was applied to all curves. All experiments were performed with a fluorescence microplate reader (Molecular Devices, Sunnyvale, CA, USA) and black 96-well microtiter plates with a clear bottom (Greiner bio-one, Frickenhausen, Germany)."}, "ProMMP-2 [2]": {"test_system": "ProMMP-2", "test": "Substrate gel zymography of treated proMMP-2", "type": "biochemical, human", "conditions": "50 ng proMMP-2, 2-h incubation at room temperature", "experimental": "Samples containing MMP-2 were diluted with zymogram sample buffer (Bio-Rad, Munich, Germany) and separated on homogeneous 10% SDS-PAGE gels containing 1 mg/ml (wt/vol) gelatine (Bio-Rad), washed with excess MMP activity buffer containing 2.5% (vol/vol) Triton X-100 to remove SDS, and incubated with MMP activity buffer for 24 h. Gels were stained with Coomassie Blue R-250. Gels showing proteolytic bands corresponding to proMMP-2 (72 kDa) or actMMP-2 (62 kDa) were scanned (Plustek, Norderstedt, Germany) and analyzed from inverted grayscale images."}, "MMP-13": {"test_system": "MMP-13", "test": "Effect of P33-42 on MMP-13", "type": "biochemical", "conditions": "MMP without CBD; data not shown", "experimental": "as §1"}, "MMP-9": {"test_system": "MMP-9", "test": "Effect of P33-42 on MMP-9", "type": "biochemical", "conditions": "MMP devoid of prodomain-CBD interaction; data not shown", "experimental": "as §1"}, "proMMP-2 / CI": {"biological_target": "T1, proMMP-2 / CI (Homo sapiens, UniProt P08253)", "T1 construct": "prodomain-containing proMMP-2 or proMMP-9; purchased Invitek", "T1 sequence (P08253 30-660 limits assumed)": "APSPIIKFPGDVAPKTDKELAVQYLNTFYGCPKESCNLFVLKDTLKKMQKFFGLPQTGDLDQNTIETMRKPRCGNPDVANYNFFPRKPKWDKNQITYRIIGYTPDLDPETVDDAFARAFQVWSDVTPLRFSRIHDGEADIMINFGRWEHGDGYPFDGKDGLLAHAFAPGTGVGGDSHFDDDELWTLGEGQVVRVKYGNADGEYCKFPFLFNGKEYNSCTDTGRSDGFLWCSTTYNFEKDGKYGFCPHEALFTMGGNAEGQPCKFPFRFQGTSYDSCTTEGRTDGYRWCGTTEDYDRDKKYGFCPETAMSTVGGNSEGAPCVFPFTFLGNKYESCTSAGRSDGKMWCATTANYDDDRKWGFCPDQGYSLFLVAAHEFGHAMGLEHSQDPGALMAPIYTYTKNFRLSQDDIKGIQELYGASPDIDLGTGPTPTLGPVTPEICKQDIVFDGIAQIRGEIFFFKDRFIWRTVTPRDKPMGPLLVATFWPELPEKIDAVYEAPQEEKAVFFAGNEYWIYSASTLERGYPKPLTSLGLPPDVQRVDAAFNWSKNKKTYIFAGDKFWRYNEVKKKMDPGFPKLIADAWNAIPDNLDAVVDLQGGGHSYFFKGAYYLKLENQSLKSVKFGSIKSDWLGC", "test": "SPR, competition of proMMP-2 binding to CI, MMP activity buffer with Ro 28-2653", "experimental": "(§2) Sensor chip preparations and SPR measurements were performed using a BiacoreX device and the Bia-evaluation software (version 3.2; Biacore, Uppsala, Sweden). The pepsin-resistant triple-helical part of human fibrillar CI (100 μg/ml) in 10 mM acetate coupling buffer, pH 4.8, was immobilized to a dextran matrix-sensor chip at a flow rate of 5 μl/min, resulting in 5,500 resonance units from CI covalently linked via its primary amino groups. The control flow cell was prepared using the coupling buffer without CI. Surfaces were activated and blocked as described previously. Immediately after thawing, pro- and actMMP-2 and pro- and actMMP-9 were diluted to 100 to 250 nM in MMP activity buffer or in PBS and 0.05% (vol/vol) Tween 20. For SPR measurements, flow rates were 10 μl/min at 25°C, and equilibrium was typically reached after 30 to 60 s. The effects of (GPO)10, GAP, (POG)5, (GPP)10 and P33-42 on MMP-2 and MMP-9 binding to CI and their enzymatic activity were determined by adding the binding competitors to the (pro- and act)MMP-2 and MMP-9 solution in 10- to 150-fold molar excesses. Effects independent of MMP-2 and MMP-9 activity were monitored in the presence of Ro 28-2653 (1 μM) during SPR analysis. The gelatinase inhibitor Ro 28-2653 was a generous gift from H.-W. Krell (Roche, Grenzach-Wyhlen, Germany). Sensor surfaces were regenerated with 10 mM glycine, pH 2.3, for 1 min between runs, and sensor chips were used up to 25 times. Kinetic parameters were analyzed using the 1:1 binding model with drifting baseline and subtraction of the control flow cell binding from sensorgrams obtained with immobilized CI. Binding constants (Kd) were calculated from the association (ka) and dissociation rates (kd) obtained from individual binding curves at different concentrations. Individual drifts of the resonance signal were fitted locally, and χ^2 values of 0.2% to 1.0% of the maximum resonance value were considered good fits."}, "[3]": {"biological_target": "Col-3 module of the CBD of MMP-2", "conditions": "ref [7]; cited from earlier work", "description": "Finally, we asked how (GPO)10 competes CBD-mediated binding of proMMP-2 to fibrillar collagen and thereby modulates binding as well as enzymatic activity and activation. We made use of the P33-42 peptide derived from the prodomain of MMP-2. […] Even at high molar ..."}, "collagen type I (CI)": {"test_system": "collagen type I (CI)", "test": "SPR binding of MMPs to immobilized CI, nonactivating buffer", "design": "species or system human", "experimental": "as §2"}, "[4]": {"test": "In situ binding of MMPs to fibrotic liver sections", "design": "species or system human", "conditions": "immunohistochemistry; 25 ng MMP, 30 min", "experimental": "Human cirrhotic liver cryostat sections (5 μm) were air-dried and fixed in ice-cold acetone for 10 min. Tissue sections were rehydrated with PBS and incubated with 25 ng/50 μl of the respective proMMP and actMMP for 30 min or were left untreated. After thorough washing with PBS, antibodies specific for human MMP-9 (clone MAB911; R&D Systems, Minneapolis, MN, USA) and human MMP-2 (clone 75-7F7; Oncogene, Cambridge, MA, USA) were applied, and primary antibody binding was detected using the alkaline phosphatase-antialkaline phosphatase detection system (Dako, Hamburg, Germany). An irrelevant primary mouse antibody served as control. Nuclei were counterstained with Hemalaun, and slides were examined by standard light microscopy."}}, "note": "“Also recorded” adds a separate entry of the source.", "data": [{"substance": "P33-42: MMP-2 prodomain-derived CBD-binding peptide (PIIKFPGDVA)", "values": [{"measurement": "DQ-gelatine cleavage by proMMP-2", "setting": "ProMMP-2 [1]; 50- to 100-fold molar excesses", "value": "no activating effect but a slight inhibitory effect"}, {"measurement": "DQ-gelatine cleavage by proMMP-2", "setting": "ProMMP-2 [1]; 150-fold molar excess", "value": "more enhanced inhibitory effect"}, {"measurement": "proMMP-2 activation", "setting": "ProMMP-2 [1]; P33-42 alone, even at high molar excesses", "value": "did not activate proMMP-2; also recorded: did not affect proMMP-2 activation"}, {"measurement": "effect on inhibitory effect of (GPO)10 on MMP-2 activity", "setting": "ProMMP-2 [1]; equimolar mixture of (GPO)10 and P33-42, 150-fold molar excess", "value": "the inhibitory effect of (GPO)10 on MMP-2 activity was diminished"}, {"measurement": "effect on (GPO)10-mediated activation of proMMP-2", "setting": "ProMMP-2 [1]; equimolar mixtures of (GPO)10 and P33-42, 50- to 100-fold molar excesses", "value": "prevented (GPO)10-mediated proMMP-2 activation; also recorded: drastically diminished the activating effect of (GPO)10 on proMMP-2; also recorded: blocked (GPO)10-mediated proMMP-2 activation"}, {"measurement": "substrate zymography, prodomain-free actMMP-2 band", "setting": "ProMMP-2 [2]", "value": "did not occur"}, {"measurement": "effect on MMP", "setting": "MMP-13", "value": "no effects"}, {"measurement": "effect on MMP", "setting": "MMP-9", "value": "no effects"}, {"measurement": "competition with proMMP-2 binding to CI", "setting": "proMMP-2 / CI; SPR, MMP activity buffer with Ro 28-2653", "value": "competed with proMMP-2 binding to CI; also recorded: only slightly inhibited proMMP-2 binding to CI"}, {"measurement": "increase of Kd of proMMP-2 binding to CI", "setting": "proMMP-2 / CI; high (up to 100-fold) molar excesses, 100-250 nM proMMP-2, 1 μM Ro 28-2653", "value": "up to 50%"}, {"measurement": "Kd", "setting": "[3]", "value": 1600, "unit": "µM"}]}, {"substance": "ActMMP-9: 86-kDa activated form of MMP-9", "values": [{"measurement": "binding to CI relative to proMMP-9", "setting": "collagen type I (CI); nonactivating conditions", "value": "sevenfold less effectively"}, {"measurement": "Off rate", "setting": "collagen type I (CI); without (GPO)10, MMP 100 nM, PBS, 0.05% Tween 20, 25°C, mean from at least three experiments", "value": 0.76, "unit": "s⁻¹"}, {"measurement": "Kd", "setting": "collagen type I (CI); without (GPO)10, MMP 100 nM, PBS, 0.05% Tween 20, 25°C, mean ± SD, at least three experiments", "value": "0.87 ± 0.39", "unit": "µM"}, {"measurement": "binding to liver sections", "setting": "[4]", "value": "No significant binding"}]}]}
